# Experimental data: patent US9765092B2, “Tricyclic piperidine compounds” (ACTELION PHARMACEUTICALS LTD, priority 2013, dated 2017)
# How the values were obtained:
# cholangiocarcinoma = settings: xenograft model of cholangiocarcinoma; cited from earlier work
# 5HT [1] = settings: 200 mg/kg i.p. qid for 3 days; cited from earlier work
# 5HT [2] = settings: mice; cited from earlier work
# human TPH1 = human TPH1 (Homo sapiens (Human), UniProt P17752); assay: Biochemical in vitro assay using fluorescence readout (TPH1 inhibition)
# human TPH1, sequence (P17752 whole entry): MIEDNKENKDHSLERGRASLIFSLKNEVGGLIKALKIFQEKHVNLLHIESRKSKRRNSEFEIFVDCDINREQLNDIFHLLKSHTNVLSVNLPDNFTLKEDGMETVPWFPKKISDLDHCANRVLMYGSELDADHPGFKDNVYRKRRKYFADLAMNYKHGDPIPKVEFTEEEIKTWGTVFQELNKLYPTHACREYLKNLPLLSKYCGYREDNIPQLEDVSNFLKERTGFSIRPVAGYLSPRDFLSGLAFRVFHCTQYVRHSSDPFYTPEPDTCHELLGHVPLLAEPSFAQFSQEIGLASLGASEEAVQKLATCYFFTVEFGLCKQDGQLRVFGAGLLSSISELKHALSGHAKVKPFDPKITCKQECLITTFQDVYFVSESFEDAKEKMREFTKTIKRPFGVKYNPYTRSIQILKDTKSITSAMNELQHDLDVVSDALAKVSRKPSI
# 5HT / 5HIAA = settings: phase IIA study, qid; cited from earlier work
# 5HT [3] = settings: in vivo; cited from earlier work
# [4] = human TPH1, fluorescence readout
# [5] = full length human TPH1, 40 μM L-tryptophan, 15° C., 60 minutes, fluorescence at 540 nm, mean if determined several times
compound,measurement,setting,value
"N[C@@H](Cc1ccc(Cl)cc1)C(=O)O (racemic) [PCA, p-chlorophenylalanine]",tumor volume,cholangiocarcinoma,dramatic reduction in tumor volume
same,5HT in the brain,5HT [1],~20 % original
same,5HT in the gut,5HT [1],~50 % original
Nc1nc(OC(c2ccc(-c3cccc(F)c3)cc2)C(F)(F)F)cc(-c2ccc(C[C@H](N)C(=O)O)cc2)n1 (some centres unmarked) [LP533401],brain 5HT concentrations,5HT [2],without effecting brain concentrations
same,gut 5HT,5HT [2],lower gut 5HT
"Cc1ccc(C2c3c(nc4sc(C(F)F)nn34)CCN2C(=O)COc2ccc(NS(C)(=O)=O)nc2Cl)c(F)c1 (centres unmarked) [Example 8.2.1, N-(6-chloro-5-(2-(2-(difluoromethyl)-5-(2-fluoro-4-methylphenyl)-7,8-dihydro-[1,3,4]thiadiazolo[2′,3′:2,3]imidazo[4,5-c]pyridin-6(5H)-yl)-2-oxoethoxy)pyridin-2-yl)methanesulfonamide]",IC50,human TPH1; [4],24 nM
"Cc1nn2c3c(nc2s1)CCN(C(=O)COc1ccc(S(N)(=O)=O)cc1C)C3c1ccc(C2CC2)cc1F (centres unmarked) [Example 1.6.14, 4-(2-(5-(4-cyclopropyl-2-fluorophenyl)-2-methyl-7,8-dihydro-[1,3,4]thiadiazolo[2′,3′:2,3]imidazo[4,5-c]pyridin-6(5H)-yl)-2-oxoethoxy)-3-methylbenzenesulfonamide]",IC50,human TPH1; [4],45 nM
"CN(C)C(=O)c1ccc(OCC(=O)N2CCc3nc4sccn4c3C2c2sccc2F)c(Cl)n1 (centres unmarked) [Example 6.8.2, 6-chloro-5-(2-(5-(3-fluorothiophen-2-yl)-7,8-dihydro-thiazolo[2′,3′:2,3]imidazo[4,5-c]pyridin-6(5H)-yl)-2-oxoethoxy)-N,N-dimethylpicolinamide]",IC50,human TPH1; [4],5 nM
"Cc1nn2c3c(nc2s1)CCN(C(=O)COc1ccc(C(=O)N(C)C)nc1Cl)C3c1cc(C(=O)N(C)C)cs1 (centres unmarked) [Example 1.9.5, 6-Chloro-5-(2-(5-(4-(dimethylcarbamoyl)thiophen-2-yl)-2-methyl-7,8-dihydro-[1,3,4]-thiadiazolo[2′,3′:2,3]imidazo[4,5-c]pyridin-6(5H)-yl)-2-oxoethoxy)-N,N-dimethyl-picolinamide]",IC50,human TPH1; [5],22 nM
"Cc1nn2c3c(nc2s1)CCN(C(=O)COc1ccc(NS(C)(=O)=O)nc1Cl)C3c1ccc(C2CC2)cc1F (centres unmarked) [Example 1.6.26, N-(6-chloro-5-(2-(5-(4-cyclopropyl-2-fluorophenyl)-2-methyl-7,8-dihydro-[1,3,4]thiadiazolo[2′,3′:2,3]imidazo[4,5-c]pyridin-6(5H)-yl)-2-oxoethoxy)pyridin-2-yl)methanesulfonamide]",IC50,human TPH1; [4],12 nM
"Cc1nn2c3c(nc2s1)CCN(C(=O)COc1c(Cl)nc(N2CCOCC2)c(F)c1F)C3c1ncc(C2CC2)cc1F (centres unmarked) [Example 1.14.11, 2-((2-chloro-4,5-difluoro-6-morpholinopyridin-3-yl)oxy)-1-(5-(5-cyclopropyl-3-fluoropyridin-2-yl)-2-methyl-7,8-dihydro-[1,3,4]thiadiazolo[2′,3′:2,3]imidazo[4,5-c]pyridin-6(5H)-yl)ethanone]",IC50,human TPH1; [4],122 nM
"CNc1ccc(OCC(=O)N2CCc3nc4sc(C)nn4c3C2c2ccc(Cl)cc2F)c(Cl)n1 (centres unmarked) [Example 1.4.27, 1-(5-(4-Chloro-2-fluorophenyl)-2-methyl-7,8-dihydro-[1,3,4]thiadiazolo[2′,3′:2,3]imidazo[4,5-c]pyridin-6(5H)-yl)-2-((2-chloro-6-(methylamino)pyridin-3-yl)oxy)ethanone]",IC50,human TPH1; [5],6 nM
"COc1cccc(-c2ccc([C@@H](Oc3cc(-c4ccc(C[C@H](N)C(=O)O)cc4)nc(N)n3)C(F)(F)F)cc2)c1 [LX1031, (S)-2-Amino-3-(4-{2-amino-6-[(R)-2,2,2-trifluoro-1-(3′-methoxy-biphenyl-4-yl)-ethoxy]-pyrimidin-4-yl}-phenyl)-propionic acid]",blood 5HT,5HT / 5HIAA,did not affect blood 5HT
same,urinary 5HIAA reduction,5HT / 5HIAA,up to 30%
same,5HT in the colon,5HT [3],only a minor reduction
same,5HT in the jejunum,5HT [3],lowers 5HT in the jejunum
same,brain 5HT,5HT [3],no effect on brain 5HT
"CCn1nc(C(=O)OC)cc1OCC(=O)N1CCc2nc3sc(C)nn3c2C1c1ccc(Cl)cc1F (centres unmarked) [Example 1.4.31, Methyl 5-(2-(5-(4-chloro-2-fluorophenyl)-2-methyl-7,8-dihydro-[1,3,4]thiadiazolo[2′,3′:2,3]imidazo[4,5-c]pyridin-6(5H)-yl)-2-oxoethoxy)-1-ethyl-1H-pyrazole-3-carboxylate]",IC50,human TPH1; [4],40 nM
"O=C(COc1ccc(N2CCOCC2)nc1Cl)N1CCc2nc3sccn3c2C1c1ccc(C2CC2)cc1F (centres unmarked) [Example 6.6.1, 2-((2-chloro-6-morpholinopyridin-3-yl)oxy)-1-(5-(4-cyclopropyl-2-fluorophenyl)-7,8-dihydrothiazolo-[2′,3′:2,3]imidazo[4,5-c]pyridin-6(5H)-yl)ethanone]",IC50,human TPH1; [4],4 nM
"CCc1nc(N2CCCS2(=O)=O)ccc1OCC(=O)N1CCc2nc3sc(CF)nn3c2C1c1sc(C)nc1C (centres unmarked) [Example 7.4.3, 1-(5-(2,4-dimethylthiazol-5-yl)-2-(fluoromethyl)-7,8-dihydro-[1,3,4]thiadiazolo[2′,3′:2,3]imidazo[4,5-c]pyridin-6(5H)-yl)-2-((6-(1,1-dioxidoisothiazolidin-2-yl)-2-ethylpyridin-3-yl)oxy)ethanone]",IC50,human TPH1; [4],8 nM
"COC1(C)CN(c2ccc(OCC(=O)N3CCc4nc5sc(C)nn5c4C3c3ccc(Cl)cc3F)c(Cl)n2)C1 (centres unmarked) [Example 1.4.43, 1-(5-(4-chloro-2-fluorophenyl)-2-methyl-7,8-dihydro-[1,3,4]thiadiazolo[2′,3′:2,3]imidazo[4,5-c]pyridin-6(5H)-yl)-2-((2-chloro-6-(3-methoxy-3-methylazetidin-1-yl)pyridin-3-yl)oxy)ethanone]",IC50,human TPH1; [4],35 nM
"CCc1nc(N2CCCS2(=O)=O)ccc1OCC(=O)N1CCc2nc3sc(C(F)(F)F)nn3c2C1c1ncc(C)cc1F (centres unmarked) [Example 5.2.1, 2-((6-(1,1-dioxidoisothiazolidin-2-yl)-2-ethylpyridin-3-yl)oxy)-1-(5-(3-fluoro-5-methylpyridin-2-yl)-2-(trifluoromethyl)-7,8-dihydro-[1,3,4]thiadiazolo[2′,3′:2,3]imidazo[4,5-c]pyridin-6(5H)-yl)ethanone]",IC50,human TPH1; [4],13 nM
"CNC(=O)c1cc(F)c(C2c3c(nc4sc(C)nn34)CCN2C(=O)COc2ccc(C(=O)N(C)C)nc2Cl)s1 (centres unmarked) [Example 1.25.4, 6-chloro-5-(2-(5-(3-fluoro-5-(methylcarbamoyl)thiophen-2-yl)-2-methyl-7,8-dihydro-[1,3,4]thiadiazolo[2′,3′:2,3]imidazo[4,5-c]pyridin-6(5H)-yl)-2-oxoethoxy)-N,N-dimethylpicolinamide]",IC50,human TPH1; [4],6 nM
